Literature values in patent publication US20070154567A1, “Use of mercury to treat cancer” (priority 2006, published 2007).

Tested on: mammary and sarcoma tumor growth in seeded wounds
Conditions: 0.2% w/v solution administered to the wound site, mice; cited from earlier work

[Cl][Hg][Cl] [mercuric chloride]
mammary and sarcoma tumor growth in seeded wounds: reduce
